The source of these data is US20250154170A1, “FUSED PYRIMIDINES AS KRAS INHIBITORS” (priority 2022, published 2025).

One assay concerns the target K-Ras-wildtype (Homo sapiens, UniProt P01116). In words: K-Ras-wildtype activation by SOS1 (wild-type KRAS activation by SOS1cat assay, HTRF). The settings on record: mean, SOS1cat mediated loading of wild-type GST-KRAS-GDP with fluorescent GTP analogue, read-out: K-Ras-wildtype activation by SOS1 IC50 - [mol/l] (mean). The class given is biochemical. The protocol: (§1) Preparation of test compound dilutions. A 100-fold concentrated solution of the test compound (50 nL) in DMSO was transferred to microtiter test plates (384 or 1,536 wells, Greiner Bio-One, Germany) using either a Hummingbird liquid handler (Digilab, MA, USA) or an Echo acoustic system (Labcyte, CA, USA). Plates were sealed with adhesive foil or heat-sealed and stored at −20 C until use. Serial dilutions of test compounds were prepared in 100% DMSO using a Precision Pipetting System (BioTek, USA).
(§2) Measurement and evaluation of inhibition data, calculation of IC50 values. Homogeneous time-resolved fluorescence (HTRF) was measured with a PHERAstar reader (BMG, Germany) using the HTRF module (excitation: 337 nm; emission 1: 620 nm, emission 2: 665 nm). The ratio of the emissions at 665 and 620 nm was used as the specific signal for further evaluation. The data were normalized using the controls: DMSO=0% inhibition, inhibition control wells with inhibitor control solution=100% inhibition. Compounds were tested in duplicates at up to 11 concentrations (e.g. 20 μM, 5.7 μM, 1.6 μM, 0.47 μM, 0.13 μM, 38 nM, 11 nM, 3.1 nM, 0.89 nM, 0.25 nM and 0.073 nM). IC50 values were calculated using a four-parameter fit, with a commercial software package (Genedata Screener, Switzerland).
(§3) KRAS^G12C activation by SOS1^cat assay (“On-assay”). This assay quantifies SOS1^cat mediated loading of KRAS^G12C-GDP with a fluorescent GTP analogue. Detection of successful loading was achieved by measuring resonance energy transfer from anti-GST-terbium (FRET donor) bound to GST-KRAS^G12C to the loaded fluorescent GTP analogue (FRET acceptor). The fluorescent GTP analogue EDA-GTP-DY-647P1 [2′/3′-O-(2-aminoethyl-carbamoyl)guanosine-5′-triphosphate labelled with DY-647P1 (Dyomics GmbH, Germany)] was synthesized by Jena Bioscience (Germany) and supplied as a 1 mM aqueous solution. A KRAS^G12C working solution was prepared in assay buffer [10 mM HEPES pH 7.4 (AppliChem), 150 mM NaCl (Sigma), 5 mM MgCl2 (Sigma), 1 mM DTT (Thermo Fisher), 0.05% BSA Fraction V pH 7.0 (ICN Biomedicals), 0.0025% (v/v) Igepal (Sigma)] containing GST-KRAS^G12C (final concentration in assay 50 nM) and anti-GST-terbium (Cisbio, France) (final concentration in assay 1 nM). A SOS1^cat working solution was prepared in assay buffer containing SOS1^cat (final concentration 10 nM) and EDA-GTP-DY-647P1 (final concentration 100 nM). An inhibitor control solution was prepared in assay buffer containing EDA-GTP-DY-647P1 (final concentration 100 nM) without SOS1^cat. All steps of the assay were performed at 20° C. A volume of 3 μL of the KRAS^G12C working solution was added to all wells of the test plate using a Multidrop dispenser (Thermo LabSystems). After 15 min, 2 μL of the SOS1^ct working solution was added to all wells, except for the inhibitor control solution wells. After 30 min incubation, HTRF was measured.
(§4) G12D and Wild-type KRAS activation by SOS1cat assays. These assays quantify human SOS1^cat mediated loading of wild-type GST-KRAS^WT-GDP or GST-KRAS^G12D-GDP with a fluorescent GTP analogue. The assay was performed similarly to the KRAS^G12C activation by SOS1^cat assay with the following differences: final concentration of SOS1^cat of 60 nM and final incubation time before measurement of 10 min for KRAS^G12D assay, final concentration of SOS1^cat of 20 nM and final incubation time before measurement of 15 min for wild-type KRAS assay, respectively. GST-KRAS^G12C was replaced by GST-KRAS^WT or GST-KRAS^G12D, respectively, also at 50 nM final concentration.
Wild-type KRAS activation by SOS1^cat assay. This assay quantifies human SOS1^cat mediated loading of wild-type GST-KRAS-GDP with a fluorescent GTP analogue. The assay was performed similarly to the KRAS^G12D activation by SOS1^cat assay just by replacement of GST-KRAS^G12D by wild-type GST-KRAS while concentrations of all components and incubation times were the same.
Background: Time-resolved FRET reads energy transfer from a long-lived donor to a nearby acceptor.

A further assay has as its target K-Ras G12D (Homo sapiens, UniProt P01116, G12D). In words: K-Ras G12D activation by SOS1 (KRAS G12D activation by SOS1cat assay, HTRF). The class given is biochemical. To be noted: mean, SOS1cat mediated loading of GST-KRAS G12D-GDP with fluorescent GTP analogue, read-out: K-Ras G12D activation by SOS1 IC50 - [mol/l] (mean). The protocol:
as §1, §2, §3, §4
KRAS^G12D activation by SOS1^cat assay (“On-assay”). This assay quantifies SOS1^cat mediated loading of KRAS^G12D-GDP with a fluorescent GTP analogue. Detection of successful loading was achieved by measuring resonance energy transfer from anti-GST-terbium (FRET donor) bound to GST-KRAS^G12D to the loaded fluorescent GTP analogue (FRET acceptor).

Values joined by “and” are separate entries in the source; they are usually repeats but may differ in a detail not shown here. Equal values may be shown once. Some results are limits rather than exact numbers.

K-Ras-wildtype, sequence (P01116 1-188 isoform P01116-2): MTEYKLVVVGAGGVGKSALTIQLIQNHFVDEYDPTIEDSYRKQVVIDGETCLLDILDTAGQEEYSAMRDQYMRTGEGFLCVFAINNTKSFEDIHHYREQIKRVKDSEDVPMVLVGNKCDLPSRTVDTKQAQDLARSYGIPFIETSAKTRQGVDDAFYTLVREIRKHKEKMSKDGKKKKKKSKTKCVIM
K-Ras G12D, sequence (P01116 1-188 isoform P01116-2 G12D): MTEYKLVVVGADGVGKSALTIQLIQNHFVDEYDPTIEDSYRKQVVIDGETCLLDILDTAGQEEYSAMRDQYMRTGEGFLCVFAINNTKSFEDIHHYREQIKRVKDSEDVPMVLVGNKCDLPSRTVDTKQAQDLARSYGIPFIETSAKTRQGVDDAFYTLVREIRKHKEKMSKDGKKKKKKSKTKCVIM

With `C#Cc1c(F)ccc2cc(O)cc(Oc3nc4c(N5CC6CCC(C5)NC6)nc(OC[C@@]56CCCN5C[C@H](F)C6)nc4s3)c12` (relative stereo) [Example 16, 4-[(7-[(1R*,5R*)-3,6-diazabicyclo[3.2.2]nonan-3-yl]-5-{[(2R,7aS)-2-fluorotetrahydro-1H-pyrrolizin-7a(5H)-yl]methoxy}[1,3]thiazolo[5,4-d]pyrimidin-2-yl)oxy]-5-ethynyl-6-fluoronaphthalen-2-ol], the figures for the IC50 on K-Ras-wildtype and on K-Ras G12D were 0.212 µM and 0.0152 µM, respectively.

Consider `C#Cc1c(F)ccc2cc(O)cc(Oc3nc4c(N5CC6CCC(C5)NC6)nc(OC[C@@]56CCCN5C[C@H](F)C6)nc4s3)c12` (single isomer, unassigned) [Example 20, 4-[(7-[(1R*,5R*)-3,6-diazabicyclo[3.2.2]nonan-3-yl]-5-{[(2R,7aS)-2-fluorotetrahydro-1H-pyrrolizin-7a(5H)-yl]methoxy}[1,3]thiazolo[5,4-d]pyrimidin-2-yl)oxy]-5-ethynyl-6-fluoronaphthalen-2-ol], for which the IC50 on K-Ras-wildtype turned out to be 0.405 µM; on K-Ras G12D, 0.00811 µM.

For `C#Cc1c(F)ccc2cc(O)cc(Oc3nc4c(N5CC6CCC(C5)NC6)nc(OC[C@@]56CCCN5C[C@H](F)C6)nc4s3)c12` (single isomer, unassigned) [Example 21, 4-[(7-[(1S*,5S*)-3,6-diazabicyclo[3.2.2]nonan-3-yl]-5-{[(2R,7aS)-2-fluorotetrahydro-1H-pyrrolizin-7a(5H)-yl]methoxy}[1,3]thiazolo[5,4-d]pyrimidin-2-yl)oxy]-5-ethynyl-6-fluoronaphthalen-2-ol], the IC50 was 0.182 µM on K-Ras-wildtype and 0.219 µM on K-Ras G12D.

For the compound `C#Cc1c(F)ccc2cc(O)cc(Oc3nc4c(N5C[C@H]6CC(F)[C@@H](C5)N6)nc(OC[C@@]56CCCN5C[C@H](F)C6)nc4s3)c12` (single isomer, unassigned) [Example 24, 5-Ethynyl-6-fluoro-4-[(7-[(1R*,5R*)-6-fluoro-3,8-diazabicyclo[3.2.1]octan-3-yl]-5-{[(2R,7aS)-2-fluorotetrahydro-1H-pyrrolizin-7a(5H)-yl]methoxy}[1,3]thiazolo[5,4-d]pyrimidin-2-yl)oxy]naphthalen-2-ol], the IC50 on K-Ras-wildtype was found to be 0.0241 µM; at K-Ras G12D it was 0.0267 µM.

On to `C#Cc1c(F)ccc2cc(O)cc(Oc3nc4c(N5C[C@H]6CC(F)[C@@H](C5)N6)nc(OC[C@@]56CCCN5C[C@H](F)C6)nc4s3)c12` (single isomer, unassigned) [Example 25, 5-Ethynyl-6-fluoro-4-[(7-[(1R*,5R*)-6-fluoro-3,8-diazabicyclo[3.2.1]octan-3-yl]-5-{[(2R,7aS)-2-fluorotetrahydro-1H-pyrrolizin-7a(5H)-yl]methoxy}[1,3]thiazolo[5,4-d]pyrimidin-2-yl)oxy]naphthalen-2-ol], for which the results for the IC50 on K-Ras-wildtype and at K-Ras G12D were 0.0699 µM and 0.0187 µM, respectively.

Regarding `C#Cc1c(F)ccc2cc(O)cc(Oc3nc4c(N5C[C@H]6CC(F)[C@@H](C5)N6)nc(OC[C@@]56CCCN5C[C@H](F)C6)nc4s3)c12` (single isomer, unassigned) [Example 26, 5-Ethynyl-6-fluoro-4-[(7-[(1R*,5R*)-6-fluoro-3,8-diazabicyclo[3.2.1]octan-3-yl]-5-{[(2R,7aS)-2-fluorotetrahydro-1H-pyrrolizin-7a(5H)-yl]methoxy}[1,3]thiazolo[5,4-d]pyrimidin-2-yl)oxy]naphthalen-2-ol], the IC50 turned out to be 0.0259 µM at K-Ras-wildtype and 0.0263 µM at K-Ras G12D.

With `C#Cc1c(F)ccc2cc(O)cc(Oc3nc4c(N5C[C@H]6CC(F)[C@@H](C5)N6)nc(OC[C@@]56CCCN5C[C@H](F)C6)nc4s3)c12` (single isomer, unassigned) [Example 27, 5-Ethynyl-6-fluoro-4-[(7-[(1R*,5R*)-6-fluoro-3,8-diazabicyclo[3.2.1]octan-3-yl]-5-{[(2R,7aS)-2-fluorotetrahydro-1H-pyrrolizin-7a(5H)-yl]methoxy}[1,3]thiazolo[5,4-d]pyrimidin-2-yl)oxy]naphthalen-2-ol], the IC50 came to 0.0912 µM at K-Ras-wildtype and 0.0237 µM on K-Ras G12D.

For `C#Cc1c(F)ccc2cc(O)cc(Oc3nc4c(N5CC6CCC(C5)N6)nc(OC[C@@]56CCCN5CC(F)C6)nc4s3)c12` (stereo in doubt) [Example 6, 4-{[7-(3,8-diazabicyclo[3.2.1]octan-3-yl)-5-{[(2R,7aS)-2-fluorotetrahydro-1H-pyrrolizin-7a(5H)-yl]methoxy}[1,3]thiazolo[5,4-d]pyrimidin-2-yl]oxy}-5-ethynyl-6-fluoronaphthalen-2-ol], the IC50 at K-Ras-wildtype was 0.0328 µM and 0.0331 µM; on K-Ras G12D, 0.00186 µM and 0.00218 µM.

As to `Oc1cc(Oc2nc3c(N4CC5CCC(C4)N5)nc(OCC45CCCN4CCC5)nc3s2)c2ccccc2c1` [Example 1, 4-{[7-(3,8-diazabicyclo[3.2.1]octan-3-yl)-5-(tetrahydro-1H-pyrrolizin-7a(5H)-ylmethoxy)[1,3]thiazolo[5,4-d]pyrimidin-2-yl]oxy}-2-naphthol], the IC50 at K-Ras-wildtype was ≥ 20 µM; on K-Ras G12D it was 1 µM.

For the compound `C#Cc1cccc2cc(O)cc(Oc3nc4c(N5CC6CCC(C5)N6)nc(OCC56CCCN5CCC6)nc4s3)c12` [Example 2, 4-{[7-(3,8-diazabicyclo[3.2.1]octan-3-yl)-5-(tetrahydro-1H-pyrrolizin-7a(5H)-ylmethoxy)[1,3]thiazolo[5,4-d]pyrimidin-2-yl]oxy}-5-ethynyl-2-naphthol], the IC50 is 0.126 µM on K-Ras-wildtype and 0.00555 µM on K-Ras G12D.

`Oc1cc(Oc2nc3c(N4C[C@H]5CC[C@@H](C4)N5)nc(OCC45CCCN4CCC5)nc3s2)c2c(F)cccc2c1` [Example 3, 4-({7-[(1R,5S)-3,8-diazabicyclo[3.2.1]octan-3-yl]-5-[(tetrahydro-1H-pyrrolizin-7a(5H)-yl)methoxy][1,3]thiazolo[5,4-d]pyrimidin-2-yl}oxy)-5-fluoronaphthalen-2-ol]: the IC50 on K-Ras-wildtype worked out at 8.14 µM; on K-Ras G12D, 0.325 µM.

`Cc1cccc2cc(O)cc(Oc3nc4c(N5CC6CCC(C5)N6)nc(OCC56CCCN5CCC6)nc4s3)c12` [Example 4, 4-({7-(3,8-diazabicyclo[3.2.1]octan-3-yl)-5-[(tetrahydro-1H-pyrrolizin-7a(5H)-yl)methoxy][1,3]thiazolo[5,4-d]pyrimidin-2-yl}oxy)-5-methylnaphthalen-2-ol]: the IC50 on K-Ras-wildtype came to 1.55 µM; on K-Ras G12D, 0.0798 µM.

As to `C#Cc1c(F)ccc2cc(O)cc(Oc3nc4c(N5C[C@H]6CC[C@@H](C5)N6)nc(OCC56CCCN5CCC6)nc4s3)c12` [Example 5, 4-({7-[(1R,5S)-3,8-diazabicyclo[3.2.1]octan-3-yl]-5-[(tetrahydro-1H-pyrrolizin-7a(5H)-yl)methoxy][1,3]thiazolo[5,4-d]pyrimidin-2-yl}oxy)-5-ethynyl-6-fluoronaphthalen-2-ol], the IC50 on K-Ras-wildtype came to 0.0691 µM; on K-Ras G12D, 0.00379 µM.
